In publication PMC9331716, “Nucleoside Transport and Nucleobase Uptake Null Mutants in Leishmania mexicana for the Routine Expression and Characterization of Purine and Pyrimidine Transporters” (International Journal of Molecular Sciences, 2022):
Where “and” joins values, the source holds several entries; their conditions need not be identical. Equal values may be shown once. Read-outs that look alike come from different tables or passages of the source.

Experiments:
[1] = target: T1, TcrNB2 (Trypanosoma cruzi, UniProt Q4DHG0); experiment: Transport assay, TcrNB2 expressed in LmexNT3-KO; type: cell-based
T1 sequence (Q4DHG0 1-440): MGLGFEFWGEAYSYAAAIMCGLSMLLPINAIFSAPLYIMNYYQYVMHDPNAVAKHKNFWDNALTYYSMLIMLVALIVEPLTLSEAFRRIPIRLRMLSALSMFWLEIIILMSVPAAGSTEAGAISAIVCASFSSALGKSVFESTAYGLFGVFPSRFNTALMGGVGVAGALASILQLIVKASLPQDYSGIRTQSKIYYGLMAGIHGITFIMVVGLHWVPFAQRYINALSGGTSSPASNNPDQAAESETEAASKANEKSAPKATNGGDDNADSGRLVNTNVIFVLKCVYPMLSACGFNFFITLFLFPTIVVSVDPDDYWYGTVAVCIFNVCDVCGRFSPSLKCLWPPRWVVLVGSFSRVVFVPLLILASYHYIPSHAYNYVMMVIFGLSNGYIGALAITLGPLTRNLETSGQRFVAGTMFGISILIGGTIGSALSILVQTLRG
Description: (§1) Transport assays were performed exactly as described previously. Briefly, 10^7 cells in 100 μL of assay buffer (AB) were mixed with an equal volume of radiolabel at 2× concentration for a preset time. The incubation was terminated by the addition of 700 μL of “Stop solution”, being ice-cold 1 mM solution of unlabelled permeant, followed by immediate centrifugation through an oil layer in a microfuge at 13,000 rpm. This causes the cell pellet to reside under the oil layer and isolated from residual radiolabel in the assay buffer. The tubes were flash-frozen in liquid nitrogen and the bottom tip, containing the cell pellet, cut off and collected in a scintillation tube. Cells were solubilized by gentle shaking after addition of a 2% SDS solution, before the addition of scintillation fluid (Scintilogic U, Lablogic, Sheffield, UK); the tubes were left to stand in the dark overnight before counting in a 300SL Hidex Scintillation Counter (Lablogic). Linear and nonlinear regression analyses were carried out using GraphPad Prism versions 8.0 and higher. […] However, all parameters, including Km, Vmax, Ki, given are the average of at least three separate, independent determinations; errors given are standard errors, unless otherwise specified.

[2] = system: L. mexicana cas9 cells; experiment: Radiolabel transport assay in cas9 cells; type: cell-based, Leishmania mexicana; conditions: cas9 cells
Description: as §1

[3] = system: L. mexicana NT3-KO promastigotes; experiment: Radiolabel transport assay in NT3-KO cells; type: cell-based, Leishmania mexicana; conditions: for rate of uptake: NT3-KO cells; for upregulation of uptake rate in NT3-KO relative to cas9: adenosine and inosine at 100 nM, separate experiments listed singly
Description: as §1

[4] = system: L. mexicana cas9 cells; experiment: Growth curve of cas9 cells with selection agents; type: cell-based, Leishmania mexicana; conditions: 5 μM tubercidin, 5 μg/mL blasticidin, 20 µg/mL puromycin, 1 µM formycin B
Description: The growth rates of the L. mexicana promastigotes were determined in the standard HOMEM medium supplemented with 10% FBS, in 12-well plates, in triplicate. After every 24 h, cells were counted in a sample of the culture, using either a Neubauer hemocytometer chamber (Hawksley, Birmingham, UK) or by a coulter particle counter and size analyzer (Beckman, Brea, CA, USA) to count the cells in triplicate. An average of the triplicate readings was taken and plotted using GraphPad Prism 8 software to obtain the growth curves.

[5] = system: L. mexicana SUPKO (ΔNT1.1/1.2/2) cells; experiment: Radiolabel transport assay in SUPKO cells; type: cell-based, Leishmania mexicana; conditions: for rate of uptake: SUPKO cells; for uptake reduced in SUPKO compared to cas9: 100 nM (0.1 µM) radiolabel
Description: as §1

[6] = target: T2, TvagENT3 (Trichomonas vaginalis, UniProt A2E5Q3); experiment: cell-based
Description: as §1

[7] = system: L. mexicana NT2-KO cells; experiment: Radiolabel transport assay in NT2-KO cells; type: cell-based, Leishmania mexicana; conditions: for inhibition of residual [^3H]-guanosine uptake in NT2-KO: 250 µM inhibitor, 100 nM [^3H]-guanosine
Description: as §1

[8] = target: T1, TcrNB2; experiment: Transport assay, TcrNB2 expressed in NT1-KO; type: cell-based; conditions: 50 nM [^3H]-adenosine, 100 nM [^3H]-hypoxanthine, 100 nM [^3H]-uracil; data not shown
Description: as §1

[9] = target: T2, TvagENT3; conditions: TvagENT3 expressed in T. brucei; cited from earlier work
[10] = system: L. mexicana NT1-KO promastigotes; experiment: Resazurin (Alamar blue) drug sensitivity assay, NT1-KO line; type: cell-based, Leishmania mexicana
Description: The assay is based on the reduction of the dye resazurin (Alamar blue) by live but not dead cells and was performed with various strains of Leishmania mexicana promastigotes, exactly as described. Briefly, doubling dilutions starting at 100 µM were set up over 2 rows of a 96-well plate and 2 × 10^5 cells were added to each well, followed by incubation at 25 °C. After 72 h, 20 µL of 125 µg/mL resazurin solution was added and the plates incubated for a further 24 h. Fluorescence was determined in a FLUOstar OPTIMA plate reader (BMG Labtech, Ortenberg, Germany), reading the fluorescence intensity in arbitrary units (A.U.) at 544 nm wavelength for excitation and 620 nm wavelength for emission. The EC50 values and fluorescence data were determined and plotted to a sigmoid curve with variable slope, using the GraphPad Prism 8 software package. All EC50 values were determined on at least three independent occasions and are presented as average ± SEM.

[11] = system: LmexNT1.1; experiment: Transport assay, LmexNT1.1 expressed in SUPKO; type: cell-based, Leishmania mexicana; conditions: SUPKO expressing LmexNT1.1, 50 nM radiolabel
Description: as §1

[12] = system: LmexNT1.2; experiment: Transport assay, LmexNT1.2 expressed in SUPKO; type: cell-based, Leishmania mexicana
Description: as §1

[13] = target: L. major U1 transporter; design: method as in PMID 15796010; conditions: unit printed only with the uridine value; cited from earlier work
[14] = substrate: Nc1ncnc2nc[nH]c12; experiment: Transport assay, TcrNB2 expressed in LmexNT3-KO; type: cell-based, Trypanosoma cruzi
Description: as §1

[15] = 100 nM radiolabel, listed as [^3H]-guanosine

T2 sequence (A2E5Q3 entry or part of it): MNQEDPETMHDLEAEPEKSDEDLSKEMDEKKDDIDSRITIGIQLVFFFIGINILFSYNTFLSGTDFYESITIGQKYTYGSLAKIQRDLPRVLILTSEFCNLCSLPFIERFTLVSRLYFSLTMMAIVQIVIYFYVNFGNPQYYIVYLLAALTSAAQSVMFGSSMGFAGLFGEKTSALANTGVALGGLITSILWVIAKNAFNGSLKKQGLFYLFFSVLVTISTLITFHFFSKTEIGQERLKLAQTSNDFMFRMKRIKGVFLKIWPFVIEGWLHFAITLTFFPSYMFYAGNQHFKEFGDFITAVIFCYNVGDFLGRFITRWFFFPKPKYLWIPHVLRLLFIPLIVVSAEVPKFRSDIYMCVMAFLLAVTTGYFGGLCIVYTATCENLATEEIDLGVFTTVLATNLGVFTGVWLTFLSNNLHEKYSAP

## Nc1ncnc2[nH]cnc12 [adenine]
[1]; NT3-KO expressing TcrNB2, 100 nM radiolabel
  rate of uptake: 0.00036 ± 0.00001 pmol(10^7 cells)^−1s^−1
[1]; TcrNB2 in NT3-KO, n = 3
  Vmax: 0.26 ± 0.04 pmol(10^7 cells)^−1s^−1
[2]; 100 nM radiolabel
  rate of uptake: 0.0213 ± 0.0009 pmol(10^7 cells)^−1s^−1
[3]; 100 nM radiolabel
  rate of transport in NT3-KO as % of that in cas9: < 1%
  rate of uptake: 0.000207 ± 0.000094 pmol(10^7 cells)^−1s^−1
[3]; 100 nM radiolabel, over 15 s
  uptake in NT3-KO lower than in cas9: > 100 fold

## CN(CC[C@H](N)CC(=O)N[C@H]1C=C[C@H](n2ccc(N)nc2=O)O[C@@H]1C(=O)O)C(=N)N [blasticidin]
[4]
  sensitivity of cas9 cells in growth curve: confirmed

## Nc1ccn([C@@H]2O[C@H](CO)[C@@H](O)[C@H]2O)c(=O)n1 [cytidine]
[5]; 500 nM radiolabel
  rate of uptake: 1.5 × 10^−5 ± 9 × 10^−6 pmol(10^7 cells)^−1s^−1
[6]; SUPKO expressing TvagENT3, 500 nM radiolabel
  rate of uptake: 1.8 × 10^−4 ± 1.3 × 10^−5 pmol(10^7 cells)^−1s^−1
[3]; listed as [^3H]-cytidine
  upregulation of uptake rate in NT3-KO relative to cas9: 3.0 fold and 3.7 fold

## Nc1nc2c(ncn2[C@@H]2O[C@H](CO)[C@@H](O)[C@H]2O)c(=O)[nH]1 [guanosine]
[5]
  uptake reduced in SUPKO compared to cas9: 95.5%
[5]; [15]
  rate of uptake: 0.00046 ± 0.00011 pmol(10^7 cells)^−1s^−1
[2]; [15]
  rate of uptake: 0.010 ± 0.0006 pmol(10^7 cells)^−1s^−1 and 0.0058 ± 0.0003 pmol(10^7 cells)^−1s^−1
[7]; 100 nM radiolabel
  rate of uptake lower in NT2-KO than in cas9: 84.5%
[7]
  inhibition of residual [^3H]-guanosine uptake in NT2-KO: completely inhibited
[7]; NT2-KO cells, 100 nM radiolabel
  rate of uptake: 0.0009 ± 0.00014 pmol(10^7 cells)^−1s^−1
[3]
  upregulation of uptake rate in NT3-KO relative to cas9: 1.7 fold and 2.1 fold

## O=c1[nH]cnc2nc[nH]c12 [hypoxanthine]
[1]; 1 mM inhibitor, TcrNB2 in NT3-KO, read-out: inhibition of adenine uptake
  inhibition at 1000 µM: 31.1 ± 4.3%
[5]; 100 nM radiolabel
  rate of uptake: 0.045 ± 0.004 pmol(10^7 cells)^−1s^−1
[7]
  inhibition of residual [^3H]-guanosine uptake in NT2-KO: completely inhibited
[8]
  effect of TcrNB2 expression on uptake in NT1-KO cells: did not increase
[3]; 100 nM radiolabel, p = 0.72
  uptake detected in NT3-KO cells: no significant hypoxanthine uptake was detected
[3]; 100 nM radiolabel
  rate of uptake: 0.00019 ± 0.00045 pmol(10^7 cells)^−1s^−1

## O=c1[nH]cnc2c1ncn2[C@@H]1O[C@H](CO)[C@@H](O)[C@H]1O [inosine]
[9]
  Ki: 3.3 ± 0.07 µM
[2]; 100 nM radiolabel
  rate of uptake: 0.016 ± 0.002 pmol(10^7 cells)^−1s^−1
[6]; TvagENT3 in SUPKO, inhibition of 50 nM [^3H]-adenosine uptake
  Ki: 2.7 ± 0.5 µM
[3]; 100 nM radiolabel
  rate of uptake: 0.061 ± 0.002 pmol(10^7 cells)^−1s^−1
[3]
  upregulation of uptake rate in NT3-KO relative to cas9: 4 fold

## N=C(N)c1ccc(OCCCCCOc2ccc(C(=N)N)cc2)cc1 [pentamidine]
[10]; NT1-KO compared with cas9
  EC50 (internal control): unchanged

## COc1ccc(C[C@H](N)C(=O)N[C@H]2[C@@H](O)[C@H](n3cnc4c(N(C)C)ncnc43)O[C@@H]2CO)cc1 [puromycin]
[4]
  sensitivity of cas9 cells in growth curve: confirmed

## Cc1cn([C@H]2C[C@H](O)[C@@H](CO)O2)c(=O)[nH]c1=O [thymidine]
[5]
  uptake reduced in SUPKO compared to cas9: 95.7 ± 1.8%
[5]; 50 nM radiolabel
  rate of uptake: 8.7 × 10^−5 ± 1.2 × 10^−5 pmol(10^7 cells)^−1s^−1
[2]; 50 nM radiolabel
  rate of uptake: 0.0018 ± 0.0001 pmol(10^7 cells)^−1s^−1
[3]
  upregulation of uptake rate in NT3-KO relative to cas9: 3.45 fold

## Nc1ncnc2c1ccn2[C@@H]1O[C@H](CO)[C@@H](O)[C@H]1O [tubercidin]
[4]
  sensitivity of cas9 cells in growth curve: confirmed
[10]; NT1-KO vs cas9, resazurin assay
  shift in tubercidin sensitivity: 60 fold

## O=c1ccn([C@@H]2O[C@H](CO)[C@@H](O)[C@H]2O)c(=O)[nH]1 [uridine]
[11]
  rate of uptake: 0.0012 ± 0.0001 pmol(10^7 cells)^−1s^−1
[12]; SUPKO expressing LmexNT1.2, 50 nM radiolabel
  rate of uptake: 0.0076 ± 0.0009 pmol(10^7 cells)^−1s^−1
[12]; SUPKO transfectants, p = 0.0004
  uptake faster by cells expressing NT1.2 than NT1.1: 6.3 fold
[5]; listed as [^3H]-uridine
  uptake reduced in SUPKO compared to cas9: 88.3% and 98.6% and 97.5%
[5]; 50 nM radiolabel
  rate of uptake: not significantly different from zero
[5]; 100 nM radiolabel
  rate of uptake: 0.0014 ± 0.00009 pmol(10^7 cells)^−1s^−1
[13]
  Ki: 10.9 ± 3.2 µM
[2]; 100 nM radiolabel
  rate of uptake: 0.10 ± 0.003 pmol(10^7 cells)^−1s^−1

B1: TcrNB2 (Trypanosoma cruzi strain CL Brener) (protein)
chain: MGLGFEFWGEAYSYAAAIMCGLSMLLPINAIFSAPLYIMNYYQYVMHDPNAVAKHKNFWDNALTYYSMLIMLVALIVEPLTLSEAFRRIPIRLRMLSALSMFWLEIIILMSVPAAGSTEAGAISAIVCASFSSALGKSVFESTAYGLFGVFPSRFNTALMGGVGVAGALASILQLIVKASLPQDYSGIRTQSKIYYGLMAGIHGITFIMVVGLHWVPFAQRYINALSGGTSSPASNNPDQAAESETEAASKANEKSAPKATNGGDDNADSGRLVNTNVIFVLKCVYPMLSACGFNFFITLFLFPTIVVSVDPDDYWYGTVAVCIFNVCDVCGRFSPSLKCLWPPRWVVLVGSFSRVVFVPLLILASYHYIPSHAYNYVMMVIFGLSNGYIGALAITLGPLTRNLETSGQRFVAGTMFGISILIGGTIGSALSILVQTLRG
[14]; other: TcrNB2 in NT3-KO, 100 nM [^3H]-adenine, n = 3
  Km: 14.2 ± 2.6 µM
[14]; other: one of three independent repeats, incubation time 120 s
  Km: 14.99 µM
